From US20110275138A1, “KETOSE 3-EPIMERASE, ITS PREPARATION AND USES” (KABUSHIKI KAISHA HAYASHIBARA SEIBUTSU KAGAKU KENKYUJO, priority 2005, published 2011)
Where two headings read alike, the source gives them in different places. Marks after values point to notes of the source that are not given here.

How the values were obtained:
ketose 3-epimerase [1] = type: biochemical, Rhizobium leguminosarum ATCC14480
ketose 3-epimerase [2] = assay: Substrate specificity of ketose 3-epimerase (epimer content by HPLC); type: biochemical, Rhizobium leguminosarum ATCC14480; conditions: for Epimer content in the reaction products: 1% (w/v) substrate, pH 8.0, 1 mM MnCl2, 45° C., 17 hours
Experimental: By using the purified preparation of the ketose 3-epimerase, obtained by the method in Experiment 2, the substrate specificity of the enzyme was investigated using various D- or L-ketohexoses and D- or L-ketopentoses as substrates. Substrate solutions were prepared by dissolving D-fructose, D-psicose, D-tagatose, D-sorbose, D-xylulose, D-ribulose, L-fructose, L-psicose, L-tagatose, L-sorbose, L-xylulose, or L-ribulose into 20 mM Tris-HCl buffer (pH 8.0) containing 1 mM MnCl2 to give a final concentration of 1% (w/v), respectively. Then, each substrate solution was further admixed with 2 units/g-substrate or 20 units/g-substrate, on a dry solid basis, as D-psicose 3-epimerase activity of the purified preparation of the ketose 3-epimerase, obtained by the method in Experiment 2; and followed by the enzyme reaction at 45° C. for 17 hours. After stopping the reaction by keeping the reaction mixture at 100° C. for 10 min, the content of epimer formed from each substrate was measured using high performance liquid chromatography (hereinafter, abbreviated as “HPLC”). HPLC was carried out under the following conditions: • Column: MCI GEL CK08EC, commercialized by Mitsubishi Chemical Corporation, Tokyo, Japan; • Eluent: water; • Column temperature: 75° C. • Flow rate: 0.6 ml/min • Detection: RID-10A, a differential refractometer commercialized by Shimadzu Corporation, Kyoto, Japan;

[3] = Optimum pH and optimum temperature of the enzyme; type: biochemical; conditions: for Optimum temperature: pH 8.0, 30 min
Experimental: (§1) The activity of the ketose 3 -epimerase of the present invention can be assayed by measuring the amount of D-fructose formed from D-psicose as a substrate. Specifically, the activity of the enzyme can be assayed as follows: A substrate solution is prepared by dissolving D-psicose in 20 mM Tris-HCl buffer (pH 8.0) containing 1 mM MnCl2 to give a final concentration of 1% (w/v). Two milliliters of the substrate solution is admixed with 0.5 ml of the enzyme solution, and the mixture solution is incubated at 45° C. for 30 min. The reaction is stopped by keeping the reaction mixture in boiling water bath for 5 min. Successively, 1 ml of the reaction mixture is admixed with 1 ml of deionized water and 1 ml NADP solution, prepared by dissolving 2.37 g of NADP, 5.93 g of ATP, and 1 g of MgSO4 7H2O into 500 ml of 0.3 M triethanolamine-HCl buffer (pH 7.6). While, Enzyme solution A and B, described below, were respectively diluted 4-fold with 0.3 M triethanolamine-HCl buffer (pH 7.6) and then both solutions were mixed in equal amount to make into a mixed enzyme solution. Then, 40 ml of the mixed enzyme solution was admixed with the mixture prepared above. After keeping the resulting mixture at room temperature for 30 min, absorbance of the mixture at 340 nm was measured for determining the amount of D-fructose formed by the reaction. […]
According to the methods described in Experiment 2, the soluble fraction of cell homogenate, obtained by the method in Experiment 5, was partially purified by salting out, dialysis and successive column chromatographies on “SEPABEADS” gel and “BUTYL-TOYOPEARL” gel, and the partially purified enzyme preparation was analyzed according to the methods in Experiment 3. […]

[4] = Ketose 3-epimerase activity assay: D-fructose formed from D-psicose; type: biochemical; conditions: D-psicose 3-epimerase activity, per purification step
Experimental: as §1, with “While, Enzyme solution A and B, described below, were respectively diluted 4-fold with 0.3 M triethanolamine-HCl buffer (pH 7.6) and then both solutions were mixed in equal amount to make into a mixed enzyme solution. Then, 40 ml of the mixed enzyme solution was admixed with the mixture prepared above.” left out
The following experiments explain the present invention in detail. In the following experiments, D-psicose 3-epimerase activity, converting D-psicose into D-fructose, was assayed according to the aforementioned assay method and expressed as ketose 3-epimerase activity.

[5] = 1 mM metal salt, substrate solution without 1 mM MnCl2, None = 100
[6] = 1 mM, in comparison with the case without metal ions
[7] = 1 mM metal salt, substrate solution without 1 mM MnCl2, None = 100, D-fructose determined by HPLC

Molecule	Relative activity (ketose 3-epimerase [1]; [5])	Effect on the ketose 3-epimerase activity (in words) (ketose 3-epimerase [1]; [6])	Epimer content in the reaction products (ketose 3-epimerase [2]; enzyme 2 units/g-substrate)	Epimer content in the reaction products (ketose 3-epimerase [2]; enzyme 20 units/g-substrate)	other results
[Cl][Al]([Cl])[Cl] [AlCl3]	86%	–	–	–	–
[Ba+2].[Cl-].[Cl-] [BaCl2]	96%	–	–	–	–
[Ca+2].[Cl-].[Cl-] [CaCl2]	89%	–	–	–	–
[Cl-].[Cl-].[Co+2] [CoCl2]	–	–	–	–	Effect on the ketose 3-epimerase activity (in words) (ketose 3-epimerase [1]): not activated; Relative activity (ketose 3-epimerase [1]): 101%
[Cl][Cu][Cl] [CuCl2]	60%	slightly inhibited	–	–	–
O=C(CO)[C@@H](O)[C@H](O)[C@H](O)CO [D-Fructose, D-fructose]	–	–	17.7%	25.8%	Action of the ketose 3-epimerase on the substrate (in words) (ketose 3-epimerase [2]): most efficiently catalyzes; Epimer content in the reaction products (ketose 3-epimerase [2]; enzyme 2 units/g-substrate, listed as D-fructose): about 18%
O=C(CO)[C@H](O)[C@H](O)[C@H](O)CO [D-Psicose, D-psicose]	–	–	39.4%	74.1%	Action of the ketose 3-epimerase on the substrate (in words) (ketose 3-epimerase [2]): most efficiently catalyzes; Epimer content in the reaction products (ketose 3-epimerase [2]; enzyme 2 units/g-substrate, listed as D-psicose): about 39%
O=C(CO)[C@H](O)[C@H](O)CO [D-Ribulose, D-ribulose]	–	–	17.1%	43.4%	Action of the ketose 3-epimerase on the substrate (in words) (ketose 3-epimerase [2]): efficiently catalyzed
O=C(CO)[C@H](O)[C@@H](O)[C@H](O)CO [D-Sorbose, D-sorbose]	–	–	0%	0.1%	Action of the ketose 3-epimerase on the substrate (in words) (ketose 3-epimerase [2]): slightly catalyzed
O=C(CO)[C@@H](O)[C@@H](O)[C@H](O)CO [D-Tagatose, D-tagatose]	–	–	0.6%	5.3%	Action of the ketose 3-epimerase on the substrate (in words) (ketose 3-epimerase [2]): slightly catalyzed
O=C(CO)[C@@H](O)[C@H](O)CO [D-Xylulose, D-xylulose]	–	–	2.3%	19.6%	Action of the ketose 3-epimerase on the substrate (in words) (ketose 3-epimerase [2]): efficiently catalyzed
O=C(O)CN(CCN(CC(=O)O)CC(=O)O)CC(=O)O [EDTA]	–	–	–	–	Effect on the ketose 3-epimerase activity (in words) (ketose 3-epimerase [1]): not inhibited; Relative activity (ketose 3-epimerase [1]): 97%
[Cl][Fe][Cl] [FeCl2]	–	–	–	–	Relative activity (ketose 3-epimerase [1]; [7]): 67%
[Cl][Fe]([Cl])[Cl] [FeCl3]	–	–	–	–	Relative activity (ketose 3-epimerase [1]; [7]): 64%
[Cl][Hg][Cl] [HgCl2, mercury chloride]	–	remarkable inhibited	–	–	Relative activity (ketose 3-epimerase [1]; [7]): 35%
O=C(CO)[C@H](O)[C@@H](O)[C@@H](O)CO [L-Fructose, L-fructose]	–	–	0%	1.4%	–
O=C(CO)[C@@H](O)[C@@H](O)[C@@H](O)CO [L-Psicose, L-psicose]	–	–	1.6%	11.3%	–
O=C(CO)[C@@H](O)[C@@H](O)CO [L-Ribulose, L-ribulose]	–	–	19.2%	58.4%	Action of the ketose 3-epimerase on the substrate (in words) (ketose 3-epimerase [2]): efficiently catalyzed
O=C(CO)[C@@H](O)[C@H](O)[C@@H](O)CO [L-Sorbose, L-sorbose]	–	–	0%	6.2%	–
O=C(CO)[C@H](O)[C@H](O)[C@@H](O)CO [L-Tagatose, L-tagatose]	–	–	3.2%	26.7%	–
O=C(CO)[C@H](O)[C@@H](O)CO [L-Xylulose, L-xylulose]	–	–	1.6%	10.3%	Action of the ketose 3-epimerase on the substrate (in words) (ketose 3-epimerase [2]): efficiently catalyzed
[Cl-].[Cl-].[Mg+2] [MgCl2]	141%	Activated	–	–	Relative activity (ketose 3-epimerase [1]; 1 mM metal salt, substrate solution without 1 mM MnCl2, None = 100, listed as Mg^2+): about 140%
[Cl][Mn][Cl] [MnCl2]	283%	Activated	–	–	Relative activity (ketose 3-epimerase [1]; 1 mM metal salt, substrate solution without 1 mM MnCl2, None = 100, listed as Mn^2+): about 280%
[Cl][Ni][Cl] [NiCl2]	64%	slightly inhibited	–	–	–
[Cl][Pb][Cl] [PbCl2]	69%	slightly inhibited	–	–	–
[Cl][Sn][Cl] [SnCl2]	114%	slightly activated	–	–	–
[Cl-].[Cl-].[Sr+2] [SrCl2]	103%	not activated	–	–	–
[Cl-].[Cl-].[Zn+2] [ZnCl2]	13%	remarkable inhibited	–	–	–
ketose 3-epimerase: purified ketose 3-epimerase from Rhizobium leguminosarum ATCC14480, 282 amino acid residues represented by SEQ ID NO: 2 (protein, listed as Rhizobium leguminosarum) MEGFGVHTSMWTMNWDRAGAEKAIAGAVHYKMDFIEIALLNAPAVDAKHTRALLEKNKLRAVCSLGLPEHAWASVRPDAAIEHLKVAIEKTAEMNAEALSGVIFGGIGERTGVPPTQGEYDNIAKVLDVAAKHARKHGIQLGVEAVNRYENHLINSAQQAVDMVERVGADNIFVHLDTYHMNIEEKGAANGILIARDHLKYIHLSESDRGTPGYGNIPWDAIYAALAAIGFKGGLAMESFINMPPEVAYGLAVWRPVARDMEEVMDKGLPFLRNKAEQYGLI	–	–	–	–	Optimum pH ([3]; 45° C., 30 min, in the presence of 1 mM Mn2+ ion): 9.0-9.5*; Optimum temperature ([3]; in the absence of 1 mM Mn2+ ion): 50 °C; Optimum temperature ([3]; in the presence of 1 mM Mn2+ ion): (65° C.)*; Specific activity of ketohexose 3-epimerase [4]: 41.6 units/mg-protein
